Results as given in patent US20110060012A1, “4-[3-(ARYLOXY)BENZYLIDENE]-3-METHYL PIPERIDINE 5-MEMBERED ARYL CARBOXAMIDE COMPOUNDS USEFUL AS FAAH INHIBITORS” (Pfizer Inc., priority 2008, published 2011).

Target: T1, Human FAAH (Homo sapiens, UniProt O00519)
T1 construct: made in house
T1 sequence (O00519 1-579): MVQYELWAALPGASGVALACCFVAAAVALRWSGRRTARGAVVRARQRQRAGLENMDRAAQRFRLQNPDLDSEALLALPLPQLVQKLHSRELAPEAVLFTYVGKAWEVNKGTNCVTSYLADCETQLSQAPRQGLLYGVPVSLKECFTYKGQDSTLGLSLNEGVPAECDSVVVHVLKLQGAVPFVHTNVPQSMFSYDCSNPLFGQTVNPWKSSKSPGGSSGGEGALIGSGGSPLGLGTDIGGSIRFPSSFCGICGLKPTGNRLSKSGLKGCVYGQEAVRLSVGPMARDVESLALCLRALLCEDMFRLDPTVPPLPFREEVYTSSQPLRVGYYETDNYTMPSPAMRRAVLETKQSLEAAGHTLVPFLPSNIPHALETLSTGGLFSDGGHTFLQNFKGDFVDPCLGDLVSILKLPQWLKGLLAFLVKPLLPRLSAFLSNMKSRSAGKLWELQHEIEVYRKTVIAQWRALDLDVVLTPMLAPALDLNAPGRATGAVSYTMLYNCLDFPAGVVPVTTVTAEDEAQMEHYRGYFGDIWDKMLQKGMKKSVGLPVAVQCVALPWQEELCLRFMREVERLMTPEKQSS
Experiment: FAAH enzyme assay (glutamate dehydrogenase-coupled, oleamide substrate)
Format: biochemical
Settings: human FAAH 1-4 nM, pH 7.4, 30° C., absorbance at 340 nm over 90 min, read-out: hFAAH Kinact/Ki
Method: A FAAH enzyme assay may be carried out as described in W02006/085196 in 384-well clear polystyrene plates in a total volume of 50 μl per well. All percents are by volume. To each well was placed the reaction mixture (40 μl) containing 1-4 nM FAAH, 50 mM NaPi, pH 7.4, 3 mM α-ketoglutarate, 0.15 mM NADH, 7.5 U/ml glutamate dehydrogenase, 2 mM ADP, 1 mM EDTA, and 0.1% Triton X-100 (The concentration shown for each component is the final concentration in the assay). To this mixture was added 5 μl of a compound of Examples 1 to 20 at various concentrations prepared in 50% DMSO (or 5 μl 50% DMSO for controls). This was immediately followed by the addition of 5 μl oleamide (500 μM) dissolved in 75% EtOH/25% DMSO and the reaction mixture is mixed for 1.5 min. The final concentrations of DMSO and EtOH in the assay were each 7.5%. The reactions was then incubated at 30° C. and the absorbance at 340 nm was collected over a period of 90 min with readings taken in 30-second intervals using SpectraMax Plus^384 Microplate Spectrophotometer (Molecular Devices, Sunnyvale, Calif.). Human FAAH used in the assay was prepared as described in the patent application WO 2006/067613. The purity of the enzyme used was greater than 98% based on an analysis by SDS-polyacrylamide gel electrophoresis followed by Coomassie Blue staining.
Initial velocity data (V) is obtained from the slopes of the initial progressive curves. They are plotted as a function of substrate concentration and fit to the Michaelis-Menten equation (1) using Prism (GraphPad Software, Inc., San Diego, Calif.) software to obtain Km and Vmax values.
To obtain potencies of irreversible inhibitors, progressive curves consistent with first order inhibition kinetics (two-step irreversible inhibition mechanism) are fit to equation (2) by nonlinear least squares regressions to determine kobs values at each inhibitor concentration, where [P]t is the absorbance at time t, V0 is a constant related to the steady state rate of the uninhibited reaction, and kobs is the first order rate constant for enzyme inactivation. […]

Row | Compound | kinact/KI [M⁻¹ s⁻¹]
1 | CC1CN(C(=O)Nc2cnoc2)CC/C1=C\c1cccc(Oc2ccc(C(F)(F)F)cn2)c1 (single isomer, unassigned) [Example 3, (4E)-N-isoxazol-4-yl-3-methyl-4-(3-{[5-(trifluoromethyl)pyridin-2-yl]oxy}benzylidene)piperidine-1-carboxamide] | 4350
2 | Cc1oncc1NC(=O)N1CC/C(=C\c2cccc(Oc3ccc(C(F)(F)F)cn3)c2)C(C)C1 (single isomer, unassigned) [Example 2, (4E)-3-methyl-N-(5-methylisoxazol-4-yl)-4-(3-{[5-(trifluoromethyl)pyridin-2-yl]oxy}benzylidene)piperidine-1-carboxamide] | 2850
3 | Cc1noc(NC(=O)N2CC/C(=C\c3cccc(Oc4ccc(C(F)(F)F)cn4)c3)C(C)C2)c1C (single isomer, unassigned) [Example 1, (4E)-N-(3,4-dimethylisoxazol-5-yl)-3-methyl-4-(3-{[5-(trifluoromethyl)pyridin-2-yl]oxy}benzylidene)piperidine-1-carboxamide] | 624
